Legend:
Test in all cases: Post-emergence herbicidal effect, greenhouse pot test
DIGSA = type: in vivo, Digitaria sanguinalis; conditions: 320 g/ha, visual rating about 3 weeks after treatment
Method in brief: (§1)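 Greenhouse pot test: weeds and crops sown in sandy loam, sprayed post-emergence at one-leaf stage (2–3 weeks after sowing) with WP or EC formulations plus 0.5% additive at 600 l/ha water, rates 20–320 g/ha. Visual rating about 3 weeks later versus untreated controls (100% = dead, 0% = as control).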

VERPE = type: in vivo, Veronica persica
Method in brief: as §1

ECHCG = type: in vivo, Echinochloa crus-galli
Method in brief: as §1

ABUTH = type: in vivo, Abutilon theophrasti; conditions: visual rating about 3 weeks after treatment
Method in brief: as §1

POLCO = type: in vivo, Fallopia convolvulus
Method in brief: as §1

SETVI = type: in vivo, Setaria viridis
Method in brief: as §1

KCHSC = type: in vivo
Method in brief: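 Visual rating of activity against untreated plants (100% = plants died, 0% = no effect), done about 3 weeks after treatment. Compounds applied at 20–320 g/ha as aqueous spray (600 l/ha, 0.5% additive) from WP or EC formulations onto one-leaf-stage plants grown in sandy loam under greenhouse conditions.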

ALOMY = type: in vivo, Alopecurus myosuroides; conditions: visual rating about 3 weeks after treatment
Method in brief: as §1

AVEFA = type: in vivo, Avena fatua; conditions: visual rating about 3 weeks after treatment
Method in brief: as §1

PHBPU = type: in vivo, Ipomoea purpurea
Method in brief: as §1

LOLRI = type: in vivo, Lolium rigidum
Method in brief: as §1

AMARE = type: in vivo, Amaranthus retroflexus; conditions: visual rating about 3 weeks after treatment
Method in brief: as §1

MATIN = type: in vivo, Tripleurospermum inodorum
Method in brief: as §1

VIOTR = type: in vivo, Viola tricolor
Method in brief: as §1

CCOC(=O)C(OCC)Oc1nn(-c2ccccc2F)c(-c2ccc(F)nc2)c1Br (single isomer, unassigned) [Example I-66, Ethyl (2R*)-{[4-bromo-1-(2-fluorophenyl)-5-(6-fluoropyridin-3-yl)-1H-pyrazol-3-yl]oxy}(ethoxy)acetate]
90%: pest or weed control at 320 g/ha (DIGSA; Digitaria sanguinalis, 504 h, read-out: Post-emergence effect against DIGSA) | pest or weed control at 320 g/ha (VERPE; Veronica persica, 504 h, 320 g/ha, read-out: Post-emergence effect against VERPE in %) | pest or weed control at 80 g/ha (ECHCG; Echinochloa crus-galli, 504 h, 80 g/ha, read-out: Post-emergence effect against ECHCG in %) | pest or weed control at 320 g/ha (ECHCG; Echinochloa crus-galli, 504 h, 320 g/ha, read-out: Post-emergence effect against ECHCG in %) | pest or weed control at 320 g/ha (ABUTH; Abutilon theophrasti, 504 h, 320 g/ha, read-out: Post-emergence effect against ABUTH) | pest or weed control at 320 g/ha (SETVI; Setaria viridis, 504 h, 320 g/ha, read-out: Post-emergence effect against SETVI in %) | pest or weed control at 320 g/ha (KCHSC; 504 h, 320 g/ha, read-out: Post-emergence effect against KCHSC in %) | pest or weed control at 320 g/ha (ALOMY; Alopecurus myosuroides, 504 h, 320 g/ha, read-out: Post-emergence effect against ALOMY) | pest or weed control at 320 g/ha (PHBPU; Ipomoea purpurea, 504 h, 320 g/ha, read-out: Post-emergence effect against PHBPU in %) | pest or weed control at 320 g/ha (LOLRI; Lolium rigidum, 504 h, 320 g/ha, read-out: Post-emergence effect against LOLRI in %) | pest or weed control at 320 g/ha (MATIN; Tripleurospermum inodorum, 504 h, 320 g/ha, read-out: Post-emergence effect against MATIN in %)
80%: pest or weed control at 80 g/ha (VERPE; Veronica persica, 504 h, 80 g/ha, read-out: Post-emergence effect against VERPE in %) | pest or weed control at 80 g/ha (ABUTH; Abutilon theophrasti, 504 h, 80 g/ha, read-out: Post-emergence effect against ABUTH) | pest or weed control at 320 g/ha (POLCO; Fallopia convolvulus, 504 h, 320 g/ha, read-out: Post-emergence effect against POLCO in %) | pest or weed control at 80 g/ha (KCHSC; 504 h, 80 g/ha, read-out: Post-emergence effect against KCHSC in %) | pest or weed control at 320 g/ha (AVEFA; Avena fatua, 504 h, 320 g/ha, read-out: Post-emergence effect against AVEFA) | pest or weed control at 20 g/ha (PHBPU; Ipomoea purpurea, 504 h, 20 g/ha, read-out: Post-emergence effect against PHBPU in %) | pest or weed control at 80 g/ha (PHBPU; Ipomoea purpurea, 504 h, 80 g/ha, read-out: Post-emergence effect against PHBPU in %) | pest or weed control at 80 g/ha (AMARE; Amaranthus retroflexus, 504 h, 80 g/ha, read-out: Post-emergence effect against AMARE) | pest or weed control at 320 g/ha (AMARE; Amaranthus retroflexus, 504 h, 320 g/ha, read-out: Post-emergence effect against AMARE) | pest or weed control at 80 g/ha (MATIN; Tripleurospermum inodorum, 504 h, 80 g/ha, read-out: Post-emergence effect against MATIN in %)

COC(=O)CCOC(=O)C(OC)Oc1nn(-c2cc(F)ccc2F)c(-c2cncc(F)c2)c1C1CC1 (single isomer, unassigned) [Example I-79]
80%: Post-emergence effect against DIGSA (DIGSA) | Post-emergence effect against ECHCG (ECHCG; 20 g/ha, visual rating about 3 weeks after treatment) | Post-emergence effect against ABUTH (ABUTH; 20 g/ha) | Post-emergence effect against ABUTH (ABUTH; 80 g/ha) | Post-emergence effect against KCHSC in % (KCHSC; 320 g/ha) | Post-emergence effect against ALOMY (ALOMY; 80 g/ha) | Post-emergence effect against AMARE (AMARE; 20 g/ha) | Post-emergence effect against AMARE (AMARE; 80 g/ha) | Post-emergence effect against AMARE (AMARE; 320 g/ha) | Post-emergence effect against MATIN in % (MATIN; 80 g/ha) | Post-emergence effect against MATIN in % (MATIN; 320 g/ha)
90%: Post-emergence effect against VERPE in % (VERPE; 20 g/ha) | Post-emergence effect against VERPE in % (VERPE; 80 g/ha) | Post-emergence effect against VERPE in % (VERPE; 320 g/ha) | Post-emergence effect against ECHCG in % (ECHCG; 80 g/ha) | Post-emergence effect against ECHCG in % (ECHCG; 320 g/ha) | Post-emergence effect against ABUTH (ABUTH; 320 g/ha) | Post-emergence effect against POLCO in % (POLCO; 80 g/ha) | Post-emergence effect against POLCO in % (POLCO; 320 g/ha) | Post-emergence effect against SETVI in % (SETVI; 20 g/ha) | Post-emergence effect against SETVI in % (SETVI; 80 g/ha) | Post-emergence effect against SETVI in % (SETVI; 320 g/ha) | Post-emergence effect against ALOMY (ALOMY; 320 g/ha) | Post-emergence effect against AVEFA (AVEFA; 80 g/ha) | Post-emergence effect against AVEFA (AVEFA; 320 g/ha) | Post-emergence effect against PHBPU in % (PHBPU; 20 g/ha) | Post-emergence effect against PHBPU in % (PHBPU; 80 g/ha) | Post-emergence effect against PHBPU in % (PHBPU; 320 g/ha) | Post-emergence effect against VIOTR in % (VIOTR; 20 g/ha) | Post-emergence effect against VIOTR in % (VIOTR; 80 g/ha) | Post-emergence effect against VIOTR in % (VIOTR; 320 g/ha) | Post-emergence effect against LOLRI in % (LOLRI; 80 g/ha) | Post-emergence effect against LOLRI in % (LOLRI; 320 g/ha)

— patent US20240391862A1, “(1,4,5-TRISUBSTITUTED-1H-PYRAZOL-3-YL)OXY-2-ALKOXY ALKYL ACIDS AND THEIR DERIVATIVES, THEIR SALTS AND THEIR USE AS HERBICIDAL AGENTS” (Bayer AKtiengesellschaft, priority 2021, published 2024)
